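Following 48 hours of exposure in 96-well plates, responses at five concentrations were used to interpolate endpoints linearly. GI50 marks 50% less growth. TGI: concentration producing complete growth inhibition.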
Legend:
Experiment in all cases: NCI anticancer screen, dose series, 48 h
PC-3 prostate = tested on: PC-3 prostate
ACHN renal = tested on: ACHN renal
UO-31 renal = tested on: UO-31 renal
MOLT-4 leukemia = tested on: MOLT-4 leukemia
BT-549 breast = tested on: BT-549 breast
K-562 leukemia = tested on: K-562 leukemia
OVCAR-8 ovarian = tested on: OVCAR-8 ovarian
SF-295 CNS = tested on: SF-295 CNS
NCI-H522 lung = tested on: NCI-H522 lung
SW-620 colon = tested on: SW-620 colon
SK-OV-3 ovarian = tested on: SK-OV-3 ovarian
HOP-92 NSCLC = tested on: HOP-92 NSCLC
OVCAR-5 ovarian = tested on: OVCAR-5 ovarian
SNB-19 CNS = tested on: SNB-19 CNS
A498 renal = tested on: A498 renal
RPMI-8226 leukemia = tested on: RPMI-8226 leukemia
SF-539 CNS = tested on: SF-539 CNS
UACC-257 melanoma = tested on: UACC-257 melanoma
CCRF-CEM leukemia = tested on: CCRF-CEM leukemia
OVCAR-3 ovarian = tested on: OVCAR-3 ovarian
HCT-116 colon = tested on: HCT-116 colon
786-0 renal = tested on: 786-0 renal
SF-268 CNS = tested on: SF-268 CNS
U251 CNS = tested on: U251 CNS
CAKI-1 renal = tested on: CAKI-1 renal
EKVX NSCLC = tested on: EKVX NSCLC
HCC-2998 colon = tested on: HCC-2998 colon
HCT-15 colon = tested on: HCT-15 colon
SN12C renal = tested on: SN12C renal
SK-MEL-5 melanoma = tested on: SK-MEL-5 melanoma
NCI/ADR-RES ovarian = tested on: NCI/ADR-RES ovarian
HL-60(TB) leukemia = tested on: HL-60(TB) leukemia
SK-MEL-2 melanoma = tested on: SK-MEL-2 melanoma
MCF7 breast = tested on: MCF7 breast
NCI-H460 lung = tested on: NCI-H460 lung
MDA-MB-435 = tested on: MDA-MB-435
UACC-62 melanoma = tested on: UACC-62 melanoma
TK-10 renal = tested on: TK-10 renal
A549 NSCLC = tested on: A549 NSCLC
T-47D breast = tested on: T-47D breast
NCI-H226 lung = tested on: NCI-H226 lung
M14 melanoma = tested on: M14 melanoma
COLO 205 colon = tested on: COLO 205 colon
SNB-75 CNS = tested on: SNB-75 CNS
LOX IMVI melanoma = tested on: LOX IMVI melanoma
HT29 colon = tested on: HT29 colon
OVCAR-4 ovarian = tested on: OVCAR-4 ovarian
HOP-62 NSCLC = tested on: HOP-62 NSCLC
RXF 393 renal = tested on: RXF 393 renal
SK-MEL-28 melanoma = tested on: SK-MEL-28 melanoma
IGROV1 ovarian = tested on: IGROV1 ovarian
KM12 colon = tested on: KM12 colon
MALME-3M melanoma = tested on: MALME-3M melanoma
HS 578T breast = tested on: HS 578T breast
NCI-H23 lung = tested on: NCI-H23 lung
DU-145 prostate = tested on: DU-145 prostate
MDA-MB-231 breast = tested on: MDA-MB-231 breast

Question: What does the source list for `COc1cc2c3c(n(CCCNCCNCCN)c(=O)c2cc1OC)-c1cc2c(cc1C3=O)OCO2`?
Answer: GI50 (PC-3 prostate): 5.62 µM; TGI (PC-3 prostate): > 55.5 µM; GI50 (ACHN renal): 3.3 µM; TGI (ACHN renal): > 53.2 µM; GI50 (UO-31 renal): 47.8 µM; TGI (UO-31 renal): > 100 µM; GI50 (MOLT-4 leukemia): 0.186 µM; TGI (MOLT-4 leukemia): 1.8 µM; GI50 (BT-549 breast): 3.09 µM; TGI (BT-549 breast): 15 µM; GI50 (K-562 leukemia): 1.18 µM; TGI (K-562 leukemia): 15.9 µM; GI50 (OVCAR-8 ovarian): 1.46 µM; TGI (OVCAR-8 ovarian): 11.2 µM; GI50 (SF-295 CNS): 0.522 µM; TGI (SF-295 CNS): 11.4 µM; GI50 (NCI-H522 lung): 2.85 µM; TGI (NCI-H522 lung): > 24.3 µM; GI50 (SW-620 colon): 2.13 µM; TGI (SW-620 colon): 43.8 µM; GI50 (SK-OV-3 ovarian): 12.1 µM; TGI (SK-OV-3 ovarian): > 100 µM; GI50 (HOP-92 NSCLC): 4.85 µM; TGI (HOP-92 NSCLC): 37.7 µM; GI50 (OVCAR-5 ovarian): 3.61 µM; TGI (OVCAR-5 ovarian): > 25.2 µM; GI50 (SNB-19 CNS): 2.12 µM; TGI (SNB-19 CNS): > 100 µM; GI50 (A498 renal): 19.1 µM; TGI (A498 renal): 39.6 µM; GI50 (RPMI-8226 leukemia): 1.22 µM; TGI (RPMI-8226 leukemia): 3.44 µM; GI50 (SF-539 CNS): 0.551 µM; TGI (SF-539 CNS): 3.21 µM; GI50 (UACC-257 melanoma): 15.2 µM; TGI (UACC-257 melanoma): 35.9 µM; GI50 (CCRF-CEM leukemia): 0.0835 µM; TGI (CCRF-CEM leukemia): 1.58 µM; GI50 (OVCAR-3 ovarian): 1.48 µM; TGI (OVCAR-3 ovarian): 6.01 µM; GI50 (HCT-116 colon): 0.831 µM; TGI (HCT-116 colon): 2.19 µM; GI50 (786-0 renal): 1.91 µM; TGI (786-0 renal): 14.7 µM; GI50 (SF-268 CNS): 1.72 µM; TGI (SF-268 CNS): 21.7 µM; GI50 (U251 CNS): 1.85 µM; TGI (U251 CNS): > 100 µM; GI50 (CAKI-1 renal): 3.38 µM; TGI (CAKI-1 renal): 22.9 µM; GI50 (EKVX NSCLC): 1.68 µM; TGI (EKVX NSCLC): 8.1 µM; GI50 (HCC-2998 colon): 3.2 µM; TGI (HCC-2998 colon): 23.8 µM; GI50 (HCT-15 colon): 11.9 µM; TGI (HCT-15 colon): > 100 µM; GI50 (SN12C renal): 2.5 µM; TGI (SN12C renal): 64.7 µM; GI50 (SK-MEL-5 melanoma): 1.99 µM; TGI (SK-MEL-5 melanoma): 9.5 µM; GI50 (NCI/ADR-RES ovarian): > 100 µM; TGI (NCI/ADR-RES ovarian): > 100 µM; GI50 (HL-60(TB) leukemia): 1.14 µM; TGI (HL-60(TB) leukemia): 15.6 µM; GI50 (SK-MEL-2 melanoma): 6.94 µM; TGI (SK-MEL-2 melanoma): 17.4 µM; GI50 (MCF7 breast): 0.434 µM; GI50 (NCI-H460 lung): 2.08 µM; TGI (NCI-H460 lung): > 42.6 µM; GI50 (MDA-MB-435): 2.67 µM; TGI (MDA-MB-435): 10.6 µM; GI50 (UACC-62 melanoma): 2.34 µM; TGI (UACC-62 melanoma): 12.8 µM; GI50 (TK-10 renal): 3.23 µM; TGI (TK-10 renal): 22.4 µM; GI50 (A549 NSCLC): 3.55 µM; TGI (A549 NSCLC): 62.2 µM; GI50 (T-47D breast): 2.99 µM; TGI (T-47D breast): > 100 µM; GI50 (NCI-H226 lung): 4.08 µM; TGI (NCI-H226 lung): 21.4 µM; GI50 (M14 melanoma): 3.35 µM; TGI (M14 melanoma): 14.7 µM; GI50 (COLO 205 colon): 2.58 µM; TGI (COLO 205 colon): > 100 µM; GI50 (SNB-75 CNS): 0.277 µM; TGI (SNB-75 CNS): 9.47 µM; GI50 (LOX IMVI melanoma): 2.67 µM; TGI (LOX IMVI melanoma): 18.3 µM; GI50 (HT29 colon): 1.72 µM; GI50 (OVCAR-4 ovarian): 5.09 µM; TGI (OVCAR-4 ovarian): > 31 µM; GI50 (HOP-62 NSCLC): 2.8 µM; TGI (HOP-62 NSCLC): 20.5 µM; GI50 (RXF 393 renal): 5.78 µM; TGI (RXF 393 renal): > 29.3 µM; GI50 (SK-MEL-28 melanoma): 4.65 µM; TGI (SK-MEL-28 melanoma): > 39.1 µM; GI50 (IGROV1 ovarian): 5.21 µM; TGI (IGROV1 ovarian): > 100 µM; GI50 (KM12 colon): 3.41 µM; TGI (KM12 colon): 17.8 µM; GI50 (MALME-3M melanoma): 0.699 µM; TGI (MALME-3M melanoma): 5.75 µM; GI50 (HS 578T breast): 3.07 µM; TGI (HS 578T breast): 15.7 µM; GI50 (NCI-H23 lung): 1.92 µM; TGI (NCI-H23 lung): 8.95 µM; GI50 (DU-145 prostate): 1.14 µM; TGI (DU-145 prostate): 5.82 µM; GI50 (MDA-MB-231 breast): 0.904 µM; TGI (MDA-MB-231 breast): 6.97 µM

From PubChem BioAssay (NCI)
